# Data from US20260256792A1, “TREATMENT OF CHRONIC SPONTANEOUS URTICARIA BY ADMINISTERING (R)-2-[3-[4-AMINO-3-(2-FLUORO-4-PHENOXY-PHENYL)PYRAZOLO[3,4-D]PYRIMIDIN-1-YL]PIPERIDINE-1-CARBONYL]-4-METHYL-4-[4-(OXETAN-3-YL)PIPERAZIN-1-YL]PENT-2-ENENITRILE” (priority 2023, published 2026).
# System: moderate-to-severe chronic spontaneous urticaria (CSU)
# Assay: Phase 2 CSU study: itch severity score over 7 days (ISS7)
# Type: in vivo, human
# Conditions: for Change from Baseline in ISS7 at Week 12, Mean / Change from Baseline in ISS7 at Week 12, LS Mean / Change from Baseline in ISS7 at Week 12, LS Mean Diff vs. placebo: Omalizumab-naïve population; for ISS7 change from baseline at Week 12, LS Mean / ISS7 change from baseline at Week 12, LS Mean Diff vs. placebo: ANCOVA
# Text: The study comprises a 12 week, randomized, double-blind, placebo-controlled, multi-center, dose-ranging efficacy and safety phase, followed by a 40 week open label extension (OLE) phase (see FIG. 1). The study consists of three phases and an optional OLE phase. […] Clinically, CSU is characterized by the spontaneous and recurrent appearance of pruritic hives. The proposed primary endpoints were the UAS7 at Week 12 in EU and EU reference countries and the ISS7 in the US. Regardless of where a participant was from, all assessments were the same. The UAS7 score is a composite score containing both the HSS7 and the ISS7. This allowed a global assessment of the two key components of urticaria: hives and itch. […] The UAS is a validated PRO measure. […] The daily UAS scores range from 0 to 6 point/day. […] Patients were to complete the UAS using the e-diary. […] The following secondary endpoints were to be analyzed using the same approach as for the primary endpoint: • Change from baseline in UAS7 at Week 4 • Change from baseline in UAS7 at Week 12 (for US and US reference countries) • Change from baseline in ISS7 at Week 12 (except US and US reference countries) • Change from baseline in HSS7 at Week 12
# [1] = 400 mg TID, Baseline ISS7 score <13
# [2] = 400 mg TID, Baseline ISS7 score ≥13
# [3] = 400 mg TID, Baseline Total IgE (IU/mL) <100
# [4] = 400 mg TID, Baseline Total IgE (IU/mL) <300
# [5] = 400 mg TID, Baseline Total IgE (IU/mL) ≥100
# [6] = 400 mg TID, Baseline Total IgE (IU/mL) ≥300
# [7] = 400 mg TID, Baseline UAS7 score <28
# [8] = 400 mg TID, Baseline UAS7 score ≥28
# [9] = 400 mg TID, Duration of disease (years) 2-10
# [10] = 400 mg TID, Duration of disease (years) <2
# [11] = 400 mg TID, Duration of disease (years) >10
# [12] = 400 mg TID, Ethnicity Non-Hispanic
# [13] = 400 mg TID, History of angioedema No
# [14] = 400 mg TID, History of angioedema Yes
# [15] = 400 mg TID, Race All the Others
# [16] = 400 mg TID, Region Eastern Europe
# [17] = 400 mg TID, Region Latin America
# [18] = 400 mg TID, Region Western Countries
# [19] = 400 mg TID, omalizumab-naïve population
# [20] = 400 mg TID, omalizumab-naïve population with outlier removed
# [21] = End of Study, 400 mg BID, Omalizumab-Naïve
compound,measurement,setting,value
"CC(C)(C=C(C#N)C(=O)N1CCC[C@@H](n2nc(-c3ccc(Oc4ccccc4)cc3F)c3c(N)ncnc32)C1)N1CCN(C2COC2)CC1 [rilzabrutinib, (R)-2-[3-[4-amino-3-(2-fluoro-4-phenoxy-phenyl)pyrazolo[3,4-d]pyrimidin-1-yl]piperidine-1-carbonyl]-4-methyl-4-[4-(oxetan-3-yl)piperazin-1-yl]pent-2-enenitrile]","Change from Baseline in ISS7 at Week 12, Mean","400 mg TID, Baseline H1-antihistamines dose 2 to 4-fold standard dose",−12.76
same,"Change from Baseline in ISS7 at Week 12, LS Mean",[1],−3.73
same,"Change from Baseline in ISS7 at Week 12, LS Mean Diff vs. placebo",[1],−1.01
same,"Change from Baseline in ISS7 at Week 12, Mean",[1],−3.50
same,"Change from Baseline in ISS7 at Week 12, LS Mean",[2],−10.18
same,"Change from Baseline in ISS7 at Week 12, LS Mean Diff vs. placebo",[2],−4.45
same,"Change from Baseline in ISS7 at Week 12, Mean",[2],−10.79
same,"Change from Baseline in ISS7 at Week 12, LS Mean",[3],−9.19
same,"Change from Baseline in ISS7 at Week 12, LS Mean Diff vs. placebo",[3],−4.95
same,"Change from Baseline in ISS7 at Week 12, Mean",[3],−11.17
same,"Change from Baseline in ISS7 at Week 12, LS Mean",[4],−9.55
same,"Change from Baseline in ISS7 at Week 12, LS Mean Diff vs. placebo",[4],5.04
same,"Change from Baseline in ISS7 at Week 12, LS Mean",[5],−9.13
same,"Change from Baseline in ISS7 at Week 12, LS Mean Diff vs. placebo",[5],−3.10
same,"Change from Baseline in ISS7 at Week 12, Mean",[5],−9.49
same,"Change from Baseline in ISS7 at Week 12, LS Mean",[6],−8.12
same,"Change from Baseline in ISS7 at Week 12, LS Mean Diff vs. placebo",[6],−1.58
same,"Change from Baseline in ISS7 at Week 12, Mean",[6],8.74
same,"Change from Baseline in ISS7 at Week 12, LS Mean",[7],−6.43
same,"Change from Baseline in ISS7 at Week 12, LS Mean Diff vs. placebo",[7],−3.26
same,"Change from Baseline in ISS7 at Week 12, Mean",[7],−7.61
same,"Change from Baseline in ISS7 at Week 12, LS Mean",[8],−10.62
same,"Change from Baseline in ISS7 at Week 12, LS Mean Diff vs. placebo",[8],−4.02
same,"Change from Baseline in ISS7 at Week 12, Mean",[8],−11.99
same,"Change from Baseline in ISS7 at Week 12, LS Mean",[9],−8.84
same,"Change from Baseline in ISS7 at Week 12, LS Mean Diff vs. placebo",[9],−1.82
same,"Change from Baseline in ISS7 at Week 12, Mean",[9],−9.37
same,"Change from Baseline in ISS7 at Week 12, LS Mean",[10],−9.77
same,"Change from Baseline in ISS7 at Week 12, LS Mean Diff vs. placebo",[10],−6.12
same,"Change from Baseline in ISS7 at Week 12, Mean",[10],−10.93
same,"Change from Baseline in ISS7 at Week 12, LS Mean",[11],−9.33
same,"Change from Baseline in ISS7 at Week 12, LS Mean Diff vs. placebo",[11],−5.64
same,"Change from Baseline in ISS7 at Week 12, Mean",[11],−11.00
same,"Change from Baseline in ISS7 at Week 12, LS Mean","400 mg TID, Ethnicity Hispanic",7.36
same,"Change from Baseline in ISS7 at Week 12, LS Mean Diff vs. placebo","400 mg TID, Ethnicity Hispanic",−0.35
same,"Change from Baseline in ISS7 at Week 12, Mean","400 mg TID, Ethnicity Hispanic",−8.13
same,"Change from Baseline in ISS7 at Week 12, LS Mean",[12],−10.16
same,"Change from Baseline in ISS7 at Week 12, LS Mean Diff vs. placebo",[12],−5.69
same,"Change from Baseline in ISS7 at Week 12, Mean",[12],−11.83
same,"Change from Baseline in ISS7 at Week 12, Mean","400 mg TID, Gender Male",−7.08
same,"Change from Baseline in ISS7 at Week 12, LS Mean",[13],−9.56
same,"Change from Baseline in ISS7 at Week 12, LS Mean Diff vs. placebo",[13],−4.22
same,"Change from Baseline in ISS7 at Week 12, Mean",[13],−10.86
same,"Change from Baseline in ISS7 at Week 12, LS Mean",[14],−8.24
same,"Change from Baseline in ISS7 at Week 12, LS Mean Diff vs. placebo",[14],−2.99
same,"Change from Baseline in ISS7 at Week 12, Mean",[14],−9.01
same,"ISS7 at Week 12, Mean","400 mg TID, ITT population",5.59
same,"ISS7 at Week 12, Median","400 mg TID, ITT population",6.00
same,"ISS7 change from baseline at Week 12, Mean","400 mg TID, ITT population",−10.68
same,"ISS7 change from baseline at Week 12, Median","400 mg TID, ITT population",−10.67
same,LS mean change from baseline in ISS7 at Week 12,"400 mg TID, ITT population",−9.58 points
same,"ISS7 change from baseline at Week 12, LS Mean","400 mg TID, ITT population",−9.58 points
same,"ISS7 change from baseline at Week 12, LS Mean Diff vs. placebo","400 mg TID, ITT population",−3.26
same,decrease from baseline in ISS7,"400 mg TID, ITT population, belongs to LS mean change −6.65",40.41%
same,LS mean change in ISS7 from baseline (see Table 29),"400 mg TID, ITT population, following one week of treatment",−6.65 points
same,"Change from Baseline in ISS7 at Week 12, LS Mean",[15],−8.74
same,"Change from Baseline in ISS7 at Week 12, LS Mean Diff vs. placebo",[15],−5.27
same,"Change from Baseline in ISS7 at Week 12, Mean",[15],−8.74
same,"Change from Baseline in ISS7 at Week 12, LS Mean","400 mg TID, Race White",−9.18
same,"Change from Baseline in ISS7 at Week 12, LS Mean Diff vs. placebo","400 mg TID, Race White",−3.17
same,"Change from Baseline in ISS7 at Week 12, Mean","400 mg TID, Race White",−10.88
same,"Change from Baseline in ISS7 at Week 12, LS Mean","400 mg TID, Region Asia",−8.33
same,"Change from Baseline in ISS7 at Week 12, LS Mean Diff vs. placebo","400 mg TID, Region Asia",−4.87
same,"Change from Baseline in ISS7 at Week 12, Mean","400 mg TID, Region Asia",−8.21
same,"Change from Baseline in ISS7 at Week 12, LS Mean",[16],−14.02
same,"Change from Baseline in ISS7 at Week 12, LS Mean Diff vs. placebo",[16],−1.35
same,"Change from Baseline in ISS7 at Week 12, Mean",[16],−13.17
same,"Change from Baseline in ISS7 at Week 12, LS Mean",[17],−6.07
same,"Change from Baseline in ISS7 at Week 12, LS Mean Diff vs. placebo",[17],0.52
same,"Change from Baseline in ISS7 at Week 12, Mean",[17],−7.34
same,"Change from Baseline in ISS7 at Week 12, LS Mean",[18],9.58
same,"Change from Baseline in ISS7 at Week 12, LS Mean Diff vs. placebo",[18],−5.03
same,"Change from Baseline in ISS7 at Week 12, Mean",[18],−11.79
same,"ISS7 at Week 12, Mean",[19],5.77
same,"ISS7 at Week 12, Median",[19],7.00
same,"ISS7 change from baseline at Week 12, Mean",[19],−10.27
same,"ISS7 change from baseline at Week 12, Median",[19],−10.33
same,LS mean change from baseline in ISS7 at Week 12,[19],−9.21
same,LS mean reduction in ISS7 (see Table 30),[19],−6.13
same,"ISS7 at Week 12, Mean",[20],5.77
same,"ISS7 at Week 12, Median",[20],7.00
same,"ISS7 change from baseline at Week 12, Mean",[20],−10.27
same,"ISS7 change from baseline at Week 12, Median",[20],−10.33
same,"ISS7 change from baseline at Week 12, LS Mean",[20],−9.57 points
same,"ISS7 change from baseline at Week 12, LS Mean Diff vs. placebo",[20],−3.86
same,LS mean change from baseline in ISS7 at Week 12,"400 mg TID, omalizumab-naïve population, outlier removed",−9.57
same,"ISS7 change from baseline at Week 12, LS Mean",[19],−9.21 points
same,"ISS7 change from baseline at Week 12, LS Mean Diff vs. placebo",[19],−3.44
same,ISS7 Mean (SD),[21],7.80 (8.76)
same,ISS7 Median,[21],7.00
same,ISS7 Mean (SD),"End of Study, 400 mg QPM, Omalizumab-Naïve",5.74 (8.03)
